One assay has as its system T1, AcUGT92G7.
T1 construct: gene UGT92G7; full-length, MBP or His fusion (pMAL-c2x or pET28a), E. coli, purified
The assay can be described thus: HPLC glucosyltransferase kinetics. The assay is classed as biochemical, Aesculus chinensis. The conditions noted are these: 1 mM UDP-glucose, Tris-HCl pH 7.0, 37 °C, 0-400 μM acceptor.

In a further assay the test system is T2, AcUGT84A56.
T2 construct: gene UGT84A56; full-length, MBP or His fusion (pMAL-c2x or pET28a), E. coli, purified
The assay can be described thus: HPLC glucosyltransferase kinetics. The assay is classed as biochemical, Aesculus chinensis. The following applies: 1 mM UDP-glucose, Tris-HCl pH 7.0, 37 °C, 0-400 μM acceptor.

SMILES strings stand for the structures.

Regarding `O=c1ccc2cc(O)c(O)cc2o1` [compound 4, esculetin], the Michaelis-Menten constant (Km) (commonly the substrate concentration at which the rate is half of its maximum) came out at 49 µM in the assay on AcUGT92G7 and 177 µM with AcUGT84A56.
